Measured values: ChEMBL document CHEMBL5537174, “Discovery of Potent SOS1 PROTACs with Effective Antitumor Activities against NCI-H358 Tumor Cells In Vitro/In Vivo” (J Med Chem, 2024)
Active and inactive are the calls of the source. The calls are words filed in the database; no cut-off is given here.

How the values were obtained:
[1] = Toxicity in BALB/c nude mouse xenografted with human NCI-H358 cells assessed as body weight loss at 30 mg/kg, ip measured every 3 days for 21 days; format: organism-based; conditions: in vivo, 504 h, time 21 day
[2] = Tmax in BALB/c nude mouse at 10 mg/kg, ip measured upto 24 hrs by LC-MS/MS analysis; format: ADME, organism-based; conditions: in vivo
[3] = biological target: T1, Protein cereblon/Son of sevenless homolog 1 (Homo sapiens, UniProt Q07889+Q96SW2); experiment: PROTAC activity at CRBN/SOS1 in human NCI-H358 cells assessed as induction of SOS1 degradation incubated for 6 hrs by Western blotting analysis; format: cell-based; conditions: read-out: DC50
Target sequence in this assay (Q07889 whole entry): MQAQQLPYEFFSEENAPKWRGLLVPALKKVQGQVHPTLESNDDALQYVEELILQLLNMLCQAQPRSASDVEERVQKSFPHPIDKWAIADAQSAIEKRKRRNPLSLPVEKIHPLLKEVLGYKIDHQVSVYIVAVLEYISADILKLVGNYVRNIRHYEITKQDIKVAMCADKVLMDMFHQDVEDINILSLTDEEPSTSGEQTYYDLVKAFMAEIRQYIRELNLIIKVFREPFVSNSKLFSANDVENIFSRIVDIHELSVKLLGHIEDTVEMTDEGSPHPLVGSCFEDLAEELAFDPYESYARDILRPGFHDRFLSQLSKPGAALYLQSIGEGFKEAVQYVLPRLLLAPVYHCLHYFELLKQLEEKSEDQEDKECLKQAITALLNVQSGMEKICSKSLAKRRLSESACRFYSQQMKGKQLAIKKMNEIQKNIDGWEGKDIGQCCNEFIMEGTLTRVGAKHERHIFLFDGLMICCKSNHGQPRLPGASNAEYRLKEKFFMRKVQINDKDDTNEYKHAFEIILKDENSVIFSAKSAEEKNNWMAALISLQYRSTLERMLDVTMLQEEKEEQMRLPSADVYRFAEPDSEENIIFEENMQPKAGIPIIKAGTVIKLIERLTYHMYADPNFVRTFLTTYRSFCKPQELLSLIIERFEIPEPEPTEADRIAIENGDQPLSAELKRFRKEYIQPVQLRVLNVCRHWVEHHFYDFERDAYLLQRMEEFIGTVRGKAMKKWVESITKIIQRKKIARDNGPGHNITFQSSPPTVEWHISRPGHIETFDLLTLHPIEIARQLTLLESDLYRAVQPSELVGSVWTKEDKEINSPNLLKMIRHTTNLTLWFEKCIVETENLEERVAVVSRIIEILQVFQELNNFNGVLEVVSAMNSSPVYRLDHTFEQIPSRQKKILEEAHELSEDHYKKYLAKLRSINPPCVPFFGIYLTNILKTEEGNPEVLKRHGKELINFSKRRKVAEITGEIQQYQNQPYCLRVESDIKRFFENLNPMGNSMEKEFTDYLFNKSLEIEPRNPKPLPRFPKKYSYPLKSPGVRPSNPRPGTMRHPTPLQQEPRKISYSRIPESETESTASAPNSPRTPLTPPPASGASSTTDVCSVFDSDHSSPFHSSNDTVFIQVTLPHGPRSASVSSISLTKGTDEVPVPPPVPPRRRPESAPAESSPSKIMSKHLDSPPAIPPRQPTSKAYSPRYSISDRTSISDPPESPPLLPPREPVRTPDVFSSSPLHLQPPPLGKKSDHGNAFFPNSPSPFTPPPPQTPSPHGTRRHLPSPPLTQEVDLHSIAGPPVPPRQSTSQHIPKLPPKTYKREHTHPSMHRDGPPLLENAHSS
Target sequence in this assay (Q96SW2 whole entry): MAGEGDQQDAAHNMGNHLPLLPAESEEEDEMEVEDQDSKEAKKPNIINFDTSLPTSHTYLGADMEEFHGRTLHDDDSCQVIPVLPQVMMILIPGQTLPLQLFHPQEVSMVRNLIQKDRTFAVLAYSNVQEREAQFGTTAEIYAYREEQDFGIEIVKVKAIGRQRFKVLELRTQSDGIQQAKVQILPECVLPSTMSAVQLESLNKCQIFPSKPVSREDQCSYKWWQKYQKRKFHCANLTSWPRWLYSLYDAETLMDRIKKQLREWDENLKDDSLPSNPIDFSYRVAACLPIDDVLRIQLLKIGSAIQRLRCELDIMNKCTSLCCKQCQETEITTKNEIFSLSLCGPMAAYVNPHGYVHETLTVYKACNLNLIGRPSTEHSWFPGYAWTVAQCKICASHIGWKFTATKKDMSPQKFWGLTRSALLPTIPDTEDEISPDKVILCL

NCI-H358 [4] = experiment: Antitumor activity against human NCI-H358 cells xenografted in BALB/c nude mouse assessed as tumor growth inhibition at 30 mg/kg, ip measured twice daily for 21 days; format: functional; conditions: NCI-H358, 504 h, time 21 day, read-out: TGI
DLD-1 = experiment: Antiproliferative activity against human DLD-1 cells harboring G13D mutant assessed as inhibition of cell proliferation incubated for 7 days by celltiter-glo 3D assay; format: functional, cell-based; conditions: DLD-1, 168 h
NCI-H441 = experiment: Antiproliferative activity against human NCI-H441 cells harboring G12V mutant assessed as inhibition of cell proliferation incubated for 7 days by celltiter-glo 3D assay; format: functional, cell-based; conditions: NCI-H441, 168 h
[5] = biological target: T1, Protein cereblon/Son of sevenless homolog 1; experiment: PROTAC activity at CRBN/SOS1 in human NCI-H358 cells assessed as induction of SOS1 degradation at > 1 uM incubated for 6 hrs by Western blotting analysis; format: cell-based
Target sequence in this assay (Q07889 whole entry, looked up): as the sequence (Q07889 whole entry) above
Target sequence in this assay (Q96SW2 whole entry, looked up): as the sequence (Q96SW2 whole entry) above

[6] = AUC (0 to t) in BALB/c nude mouse at 10 mg/kg, ip measured upto 24 hrs by LC-MS/MS analysis; format: ADME, organism-based; conditions: in vivo
[7] = Cmax in BALB/c nude mouse at 10 mg/kg, ip measured upto 24 hrs by LC-MS/MS analysis; format: ADME, organism-based; conditions: in vivo
NCI-H358 [8] = experiment: Antiproliferative activity against human NCI-H358 cells harboring G12C mutant assessed as inhibition of cell proliferation incubated for 7 days by celltiter-glo 3D assay; format: functional, cell-based; conditions: NCI-H358, 168 h
Cytochrome P450 3A4 = Cytochrome P450 3A4 (Homo sapiens, UniProt P08684); experiment: Inhibition of CYP3A4 in human liver microsome preincubated with compound for 5 mins followed by NADPH addition and measured after 5 mins by LC-MS/MS analysis; format: ADME, microsomes
Sequence of Cytochrome P450 3A4 (P08684 whole entry): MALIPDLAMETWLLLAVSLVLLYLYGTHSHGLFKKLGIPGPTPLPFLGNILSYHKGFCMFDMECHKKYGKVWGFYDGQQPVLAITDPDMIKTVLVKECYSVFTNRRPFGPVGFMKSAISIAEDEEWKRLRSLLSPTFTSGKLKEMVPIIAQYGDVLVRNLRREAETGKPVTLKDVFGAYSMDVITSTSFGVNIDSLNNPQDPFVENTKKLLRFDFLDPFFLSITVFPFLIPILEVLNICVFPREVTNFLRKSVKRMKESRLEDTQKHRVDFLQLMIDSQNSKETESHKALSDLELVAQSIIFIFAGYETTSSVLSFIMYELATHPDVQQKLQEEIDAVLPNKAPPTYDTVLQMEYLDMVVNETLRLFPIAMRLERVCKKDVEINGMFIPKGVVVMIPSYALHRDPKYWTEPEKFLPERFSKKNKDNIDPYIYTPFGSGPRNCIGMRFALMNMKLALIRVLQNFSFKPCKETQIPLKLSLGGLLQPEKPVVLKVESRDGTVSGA

NCI-H358 [9] = experiment: Antiproliferative activity against human NCI-H358 cells assessed as inhibition of cell proliferation incubated for 7 days by celltiter-glo 3D assay; format: functional, cell-based; conditions: NCI-H358, 168 h
[10] = Antiproliferative activity against human GP2d cells harboring G12D mutant assessed as inhibition of cell proliferation incubated for 7 days by celltiter-glo 3D assay; format: functional, cell-based; conditions: 168 h
[11] = AUC (0 to infinity) in BALB/c nude mouse at 10 mg/kg, ip measured upto 24 hrs by LC-MS/MS analysis; format: ADME, organism-based; conditions: in vivo
NCI-H358 [12] = experiment: Potency index, ratio of test compound IC50 to BI3406 IC50 for antiproliferative activity against human NCI-H358 cells assessed as inhibition of cell proliferation incubated for 7 days by celltiter-glo 3D assay; format: functional; conditions: time 7 day
[13] = biological target: T1, Protein cereblon/Son of sevenless homolog 1; experiment: PROTAC activity at CRBN/SOS1 in human NCI-H358 cells assessed as induction of SOS1 degradation at 0.1 to 1 uM incubated for 6 hrs by Western blotting analysis; format: cell-based; conditions: dose 0.1-1 µM
Target sequence in this assay (Q07889 whole entry, looked up): as the sequence (Q07889 whole entry) above
Target sequence in this assay (Q96SW2 whole entry, looked up): as the sequence (Q96SW2 whole entry) above

[14] = Half life in BALB/c nude mouse at 10 mg/kg, ip measured upto 24 hrs by LC-MS/MS analysis; format: ADME, organism-based; conditions: in vivo
[15] = biological target: Voltage-gated inwardly rectifying potassium channel KCNH2 (Homo sapiens, UniProt Q12809); experiment: Inhibition of hERG at -80 mV holding potential by whole cell patch clamp recording assay; format: toxicity
Sequence of Voltage-gated inwardly rectifying potassium channel KCNH2 (Q12809 whole entry): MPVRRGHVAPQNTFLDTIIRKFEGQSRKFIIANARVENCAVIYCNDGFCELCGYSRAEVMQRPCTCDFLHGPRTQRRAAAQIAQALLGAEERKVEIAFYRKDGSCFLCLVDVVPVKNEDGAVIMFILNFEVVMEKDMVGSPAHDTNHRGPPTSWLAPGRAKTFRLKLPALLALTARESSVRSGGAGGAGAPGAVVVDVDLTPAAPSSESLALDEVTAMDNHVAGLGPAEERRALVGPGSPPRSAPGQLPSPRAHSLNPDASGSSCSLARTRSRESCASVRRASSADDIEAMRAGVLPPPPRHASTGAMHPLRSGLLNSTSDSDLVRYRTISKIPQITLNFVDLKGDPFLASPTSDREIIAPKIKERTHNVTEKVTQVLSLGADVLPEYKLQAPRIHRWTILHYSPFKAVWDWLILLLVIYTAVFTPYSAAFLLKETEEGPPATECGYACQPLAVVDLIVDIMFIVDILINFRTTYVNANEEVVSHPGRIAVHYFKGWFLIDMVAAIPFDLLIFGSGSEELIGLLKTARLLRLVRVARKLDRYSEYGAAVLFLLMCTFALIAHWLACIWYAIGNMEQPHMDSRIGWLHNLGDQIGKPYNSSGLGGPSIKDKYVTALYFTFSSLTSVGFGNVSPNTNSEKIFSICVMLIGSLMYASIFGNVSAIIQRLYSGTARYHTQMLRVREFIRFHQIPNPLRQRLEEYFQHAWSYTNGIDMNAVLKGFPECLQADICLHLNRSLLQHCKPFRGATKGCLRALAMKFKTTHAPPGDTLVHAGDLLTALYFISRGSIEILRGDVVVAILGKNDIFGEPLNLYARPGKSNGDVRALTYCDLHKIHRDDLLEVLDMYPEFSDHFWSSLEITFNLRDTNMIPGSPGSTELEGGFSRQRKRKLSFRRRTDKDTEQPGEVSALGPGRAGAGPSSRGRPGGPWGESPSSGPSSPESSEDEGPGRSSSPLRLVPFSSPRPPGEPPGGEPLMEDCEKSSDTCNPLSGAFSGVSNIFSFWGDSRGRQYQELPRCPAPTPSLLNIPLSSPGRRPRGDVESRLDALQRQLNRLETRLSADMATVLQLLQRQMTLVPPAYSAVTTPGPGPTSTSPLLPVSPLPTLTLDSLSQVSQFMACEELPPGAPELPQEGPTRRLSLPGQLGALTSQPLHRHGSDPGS

COc1cc2nc(C)nc(N[C@H](C)c3cc(N)cc(C(F)(F)F)c3)c2cc1OCC1(CN(C)C(=O)CCCCCCNc2cccc3c2C(=O)N(C2CCC(=O)NC2=O)C3=O)CC1 (stereo partly drawn)
Activity [1]: Non-Toxic | Tmax [2]: 1 h | DC50 [3]: 0.013 µM | inhibition in vivo at 30 mg/kg (NCI-H358 [4]): 58.8% | IC50 (DLD-1): 0.063 µM | IC50 (NCI-H441): 0.043 µM | Activity [5]: inactive | AUC(0-t) at 24 h [6]: 4.37 µg·h/mL | Cmax [7]: 1.87 µg/mL | IC50 (NCI-H358 [8]): 0.005 µM | IC50 (Cytochrome P450 3A4): 0.32 µM | IC50 (NCI-H358 [9]): 0.005 µM | IC50 [10]: 2.15 µM | AUC(0-inf) [11]: 4.38 µg·h/mL | Ratio IC50 (NCI-H358 [12]): 5 | Activity [13]: Active | half-life [14]: 4.05 h | IC50 [15]: > 30 µM
